TGI data for 14 compounds are collected here from PubChem BioAssay (NCI).

Holding throughout (test): inhibition of tumour cell growth, NCI panel, 48 h
In experiment [1] the test system is IGROV1 ovarian.
Experiment [2] concerns KM12 colon.
The test system of experiment [3] is MALME-3M melanoma.
Experiment [4] deals with MDA-MB-231 breast.
For experiment [5], the system named is RPMI-8226 leukemia.
Experiment [6] deals with SF-539 CNS.
Experiment [7] has as its system SK-MEL-2 melanoma.
Experiment [8] has as its system SNB-75 CNS.
For experiment [9], the system named is SW-620 colon.
Experiment [10] deals with T-47D breast.
Experiment [11] has as its system NCI-H522 lung.
The test system of experiment [12] is UACC-62 melanoma.

Molecules are shown by their SMILES.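 Growth conditions: 96-well plates. Treatment: test compound, 48 hours, 5 concentrations. Analysis: linear interpolation between bracketing concentrations; unreached endpoints set to highest concentration. Definition used: TGI = concentration required for complete inhibition of growth.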

In the case of `CC1CN=C(N(Cc2ccccc2)C(=O)Nc2ccc(Cl)c(Cl)c2)S1` (stereo unspecified), the TGI was more than 100 µM in experiment [1]; more than 100 µM in experiment [2]; more than 100 µM in experiment [3]; 86.6 µM in [4]; more than 100 µM in [5]; more than 100 µM in experiment [6]. For the same compound, the TGI in experiment [7] is 68.3 µM; in [8], more than 100 µM; in [9], more than 100 µM; in experiment [10] it was more than 100 µM.

For the compound `N[C@H](C(=O)O)[C@@H]1CC(Br)=NO1`, the TGI in experiment [1], in experiment [2], in [3], in experiment [4], in experiment [11] and in experiment [6] was more than 100 µM throughout. The TGI in experiment [7], in experiment [8], in experiment [9], in [10] and in experiment [12] was more than 100 µM in each case.

With `CCOC(=O)C(C(=O)OCC)=C1NC2(c3ccccc3Nc3ccccc32)C(C#N)S1` (stereo unspecified), the TGI in [1] amounted to 25.6 µM; in experiment [2], 19.2 µM; in experiment [3], 29 µM; in experiment [11], 29.2 µM; in [5], 7.07 µM; in [6] it was 23 µM. Moreover, the TGI in experiment [7] came to 25.5 µM; in [8], 53.2 µM; in [9], 51.6 µM; in [10], 25.5 µM; in experiment [12], 22 µM.

As to `O=C(c1ccccc1)N(C(=O)c1ccccc1)c1nc(SCc2ccccc2)ns1`, the TGI is more than 100 µM in [1]; more than 100 µM in experiment [2]; 74.8 µM in [3]; 61.5 µM in experiment [11]; 56.6 µM in experiment [5]; 44.1 µM in experiment [6]. Further, the TGI in experiment [7] is 49.5 µM; in experiment [8] it was 58.1 µM; in [9] it was more than 100 µM; in experiment [10], more than 100 µM; in experiment [12], 42.9 µM.

Regarding `C/C=C/C#CC#C/C=C/C=C/C(O)CCO` (stereo unspecified), the TGI in [1], in experiment [2], in [3], in [11], in [5] and in experiment [6] was more than 23.1 µM throughout. The TGI in experiment [7], in [8], in experiment [9] and in experiment [12] was more than 23.1 µM each time.

Regarding `Nc1c([N+](=O)[O-])nc(Cl)c2nncn12`, the TGI in experiment [1] is more than 100 µM; in [2] it was more than 100 µM; in experiment [3], more than 100 µM; in experiment [11], more than 100 µM; in experiment [5], more than 69.7 µM; in experiment [6] it was more than 100 µM. Moreover, the TGI is more than 100 µM in experiment [7], more than 77.7 µM in [8], more than 100 µM in experiment [9] and more than 100 µM in experiment [12].

`COc1ccc(/C=N/n2c(C)n[nH]c2=O)c(OC)c1`: the TGI in [2], in [3], in experiment [4], in experiment [5], in [6] and in experiment [7] was more than 100 µM in each case. Also, the TGI in experiment [8], in experiment [9], in [10] and in experiment [12] was more than 100 µM each time.

Turning to `COC(=O)C(CCSC)NC(=O)CNC(=O)CSc1nnc(COc2ccc(Cl)cc2)n1-c1ccccc1` (stereo unspecified), the TGI in experiment [1] came out at 30.2 µM; in [2], 44.6 µM; in experiment [3] it was 32.7 µM; in experiment [4], 29.4 µM; in [5], 59.7 µM; in [6] it was 35 µM. Moreover, the TGI in experiment [7] worked out at 28.7 µM; in experiment [8] it was 36.3 µM; in experiment [9], 45.3 µM; in experiment [10] it was 54.7 µM; in experiment [12], 30.3 µM.

In the case of `COc1c(=O)cc2cc[nH]c3ccn(C)c1c23`, the TGI in experiment [1], in [2], in [4], in experiment [5], in experiment [7] and in experiment [8] was more than 100 µM throughout. The TGI in [9], in experiment [10] and in [12] was more than 100 µM in each case.

As for `O=[N+]([O-])/C(C(Cl)=C(Cl)Cl)=C(/Cl)SCc1ccccc1`, the TGI in experiment [1] came out at 35.7 µM; in experiment [2], 34.6 µM; in experiment [3], 6.68 µM; in experiment [4], 4.32 µM; in [11], 7.8 µM; in experiment [6] it was 32.3 µM. Further, the TGI was 47.4 µM in experiment [7]; 24.9 µM in [8]; 10.2 µM in experiment [9]; 39.2 µM in experiment [10]; 14.4 µM in [12].

As for `CN(C)C(=NCc1ccccc1)NC#N`, the TGI in [1], in [2], in experiment [11], in [6], in experiment [7] and in [9] was more than 100 µM throughout. Further, the TGI in experiment [12] was more than 100 µM.

For the compound `C/C(=C\CBr)CCC(Br)C(C)(C)Cl` (stereo unspecified), the TGI in experiment [1], in [2], in [3], in [11], in experiment [5] and in experiment [6] was more than 100 µM each time. Also, the TGI in [7], in [8], in [9] and in experiment [12] was more than 100 µM each time.

For the compound `NNC(=O)c1c(-c2cccnc2)cnc2ccccc12`, the TGI in experiment [1], in experiment [2], in [3], in experiment [11], in experiment [5] and in experiment [6] was more than 100 µM each time. Moreover, the TGI in [7], in [8], in experiment [9] and in [12] was more than 100 µM throughout.

`Oc1ccc2cc(Br)ccc2c1-c1c(O)ccc2ccc(Br)cc12`: the TGI in experiment [1] stood at 20.7 µM; in experiment [2], 18.9 µM; in experiment [3] it was 26.6 µM; in experiment [4], 21.6 µM; in [11] it was 29.9 µM; in experiment [6], 34.8 µM. For the same compound, the TGI was determined as 31.4 µM in experiment [7], 24.2 µM in experiment [9], 25.3 µM in experiment [10] and 31 µM in [12].
